Here are results for six compounds from patent US9670209B2 (ACADIA Pharmaceuticals Inc., priority 2013, dated 2017).

Marks after values point to notes of the source that are not given here.

Data set [1] concerns the target human M3 muscarinic acetylcholine receptor (Homo sapiens (Human), UniProt P20309). The experiment in a line: R-SAT (Receptor Selection and Amplification) assay, M3. It is filed as cell-based. Conditions: for M3 PEC50 AVG: NIH-3T3 cells; for Emax: read-out: M3 EFF % AVG. The protocol: (§1) Briefly, NIH-3T3 cells were grown in 96-well tissue culture plates to 70% to 80% confluence. Cells were transfected with plasmid DNAs using Superfect Reagent (QIAGEN, Valencia, Calif.) as per the manufacturer's protocols. […] Cells were then grown in a humidified atmosphere with 5% ambient CO2 for 4 to 6 days. Media were then removed from the plates, and beta-galactosidase activity was measured by the addition of o-nitrophenyl-D-galactopyranoside (in phosphate-buffered saline with 5% NP-40 detergent). […] All data represent the mean of three wells and were analyzed using the computer program Excel Fit, and EC50 determinations were made using least-squares fit analysis with GraphPad Software Inc. (San Diego, Calif.) software.

Data set [2] addresses human M1 muscarinic acetylcholine receptor (Homo sapiens (Human), UniProt P11229). The experiment in a line: R-SAT (Receptor Selection and Amplification) assay, M1. It is filed as cell-based. Particulars: for M1 PEC50 AVG: NIH-3T3 cells; for Emax: read-out: M1 EFF % AVG. Here is the method:
as §1

The target of data set [3] is human M2 muscarinic acetylcholine receptor (Homo sapiens (Human), UniProt P08172). The experiment in a line: R-SAT (Receptor Selection and Amplification) assay, M2. Particulars: for M2 PEC50 AVG: NIH-3T3 cells; for Emax: read-out: M2 EFF % AVG. It is filed as cell-based. The protocol:
as §1

The test system of the next data set is tear secretion. The experiment in a line: Tear secretion (phenol red thread) in mice. The format is in vivo, balb/c mice. Conditions: for Effects on tear secretion compared to Comparative Compound 2: other studies using the same method (Table 2), statistically significant compared to vehicle. Here is the method:
The tear distance, in mm, is recorded. The mice were not anesthetized or otherwise sedated. […] Data are analyzed by repeated measures ANOVA with post-hoc Bonferroni comparisons to vehicle. […] Further details can be seen in FIG. 2.

In the next data set the target is M1 muscarinic receptor (Homo sapiens (Human), UniProt P11229). Description: M1 GTPγS binding assay.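 As to Emax: efficacy relative to carbachol as 100%.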 It is filed as biochemical. Particulars: for Emax: read-out: M1 GTPγS EFF % AVG.
The nature of data set [4]: Ocular pharmacokinetic evaluation in rabbits. The format is in vivo, New Zealand White rabbits. The protocol:
The experimental animals were normotensive male New Zealand White rabbits. A single drop (35 μl) of a compound, (302s), at a concentration of 0.126% (corrected for oxalate salt weight) was administered to each eye by pipette. At 0.25, 0.5, 1, 2, 4, 8, and 24 hours, plasma, aqueous humor, vitreous humor, cornea, iris-ciliary body, retina, and choroid were collected (2 rabbits/timepoint, or 4 eyes/timepoint). Approximately 0.5 ml of blood was collected and placed in EDTA tubes. Blood samples were kept on ice during the duration of sample collection, and centrifuged to harvest plasma. Animals were euthanized and ocular tissues were collected and placed in vials and kept on dry ice for the duration of the collections. All ocular tissue and plasma samples were stored at or below −60° C. until bioanalysis. […] The plasma concentration at most timepoints was >100-fold lower than the compound concentration in target ocular tissues (iris/ciliary body, cornea, retina). The concentration of compound 302s in the target ocular tissues remained at active levels up to at least 24 h. Abbreviations used in FIG. 3 have the following meanings AH (Aqueous Humor), VH (Vitreous Humor) ICB (Iris Ciliary Body), CenP Retina (Center Punch Retina), Per Retina (Peripheral Retina) CenP Choroid (Center Punch Choroid), and Per Choroid (Peripheral Choroid)

The mark [5] stands for this setting: R-SAT, percent efficacy vs carbachol = 100 percent.
[6] abbreviates: percent efficacy vs carbachol = 100 percent.
Setting [7] is: first study of Table 2, 1 hr post-dosing, 5 μl drop of 0.1% to each eye.
[8] abbreviates: second study of Table 2, 1 hr post-dosing, 5 μl drop of 0.1% to each eye.
Where [9] appears, read: second study of Table 2, 3 hr post-dosing, 5 μl drop of 0.1% to each eye.
The mark [10] stands for this setting: third study (pilocarpine 24-hour study), 3 hr post-dosing, 0.1% 5 μl drop, Pilocarpine 0.2% 20 μl drop.
Where [11] appears, read: third study (pilocarpine 24-hour study), 6 hr post-dosing, 0.1% 5 μl drop, Pilocarpine 0.2% 20 μl drop.
Where [12] appears, read: third study (pilocarpine 24-hour study), 24 hr post-dosing, 0.1% 5 μl drop, Pilocarpine 0.2% 20 μl drop.
[13] abbreviates: pilocarpine 24-hour study, 3 and 6 hours post-dosing.

Chain of human M3 muscarinic acetylcholine receptor (P20309 whole entry): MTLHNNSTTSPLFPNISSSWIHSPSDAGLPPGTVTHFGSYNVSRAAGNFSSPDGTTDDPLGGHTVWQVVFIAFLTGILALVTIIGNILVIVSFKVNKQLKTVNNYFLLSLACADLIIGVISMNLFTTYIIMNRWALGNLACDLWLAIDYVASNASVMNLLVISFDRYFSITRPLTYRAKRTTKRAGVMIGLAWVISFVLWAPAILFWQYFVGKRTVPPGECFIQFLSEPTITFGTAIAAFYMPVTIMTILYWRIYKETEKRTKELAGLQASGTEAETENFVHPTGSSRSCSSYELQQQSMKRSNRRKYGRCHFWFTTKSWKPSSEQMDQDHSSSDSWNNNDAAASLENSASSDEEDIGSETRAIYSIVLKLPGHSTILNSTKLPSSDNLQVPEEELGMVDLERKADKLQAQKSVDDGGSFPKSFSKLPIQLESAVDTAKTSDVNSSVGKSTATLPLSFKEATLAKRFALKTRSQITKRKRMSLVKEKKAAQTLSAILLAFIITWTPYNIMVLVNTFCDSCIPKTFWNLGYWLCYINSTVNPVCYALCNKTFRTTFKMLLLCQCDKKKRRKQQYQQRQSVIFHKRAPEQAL
Chain of human M2 muscarinic acetylcholine receptor (P08172 whole entry): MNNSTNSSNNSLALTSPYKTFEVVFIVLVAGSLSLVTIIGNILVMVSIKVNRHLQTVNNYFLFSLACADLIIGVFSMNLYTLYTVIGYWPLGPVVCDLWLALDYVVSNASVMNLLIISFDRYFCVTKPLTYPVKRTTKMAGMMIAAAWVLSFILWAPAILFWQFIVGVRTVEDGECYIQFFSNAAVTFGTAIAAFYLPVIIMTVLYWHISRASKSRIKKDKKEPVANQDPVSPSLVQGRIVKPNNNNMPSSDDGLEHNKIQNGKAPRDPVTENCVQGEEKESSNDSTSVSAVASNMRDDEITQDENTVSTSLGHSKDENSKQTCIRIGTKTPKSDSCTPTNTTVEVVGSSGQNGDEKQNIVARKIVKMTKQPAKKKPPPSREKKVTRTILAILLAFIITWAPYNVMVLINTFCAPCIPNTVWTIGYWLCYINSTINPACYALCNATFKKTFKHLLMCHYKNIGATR
Chain of human M1 muscarinic acetylcholine receptor (P11229 whole entry): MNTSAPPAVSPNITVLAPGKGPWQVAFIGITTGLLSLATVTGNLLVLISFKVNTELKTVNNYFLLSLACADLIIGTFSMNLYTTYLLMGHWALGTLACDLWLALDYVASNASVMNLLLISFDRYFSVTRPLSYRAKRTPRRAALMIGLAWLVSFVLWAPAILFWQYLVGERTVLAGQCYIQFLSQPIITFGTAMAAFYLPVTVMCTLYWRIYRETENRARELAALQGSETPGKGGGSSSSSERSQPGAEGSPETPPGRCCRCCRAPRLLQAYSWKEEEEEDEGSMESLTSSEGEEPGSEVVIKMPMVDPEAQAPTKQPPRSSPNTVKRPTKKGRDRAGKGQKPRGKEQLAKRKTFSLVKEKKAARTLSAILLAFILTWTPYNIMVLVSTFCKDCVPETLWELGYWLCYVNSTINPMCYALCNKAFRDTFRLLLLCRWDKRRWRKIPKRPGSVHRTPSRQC
Chain of M1 muscarinic receptor (P11229 whole entry): as above

With `CC(C)(C)OC(=O)N1C2CC[C@H]1C[C@@H](O)C2` [Comparative compound 2, reference compound], the “M3 PEC50 AVG” value in data set [1] (R-SAT) worked out at 7.1. For the same compound, the “M3 EFF % AVG” value in data set [1] (setting [5]) is given as 30%. For the same compound, the “M1 PEC50 AVG” value in data set [2] came out at 9.0. Further, the “M1 EFF % AVG” value in data set [2] (setting [6]) was 126%. Moreover, the “M2 PEC50 AVG” value in data set [3] (R-SAT) turned out to be 7.1. Besides, in data set [3] (setting [5]), the “M2 EFF % AVG” value is 52%. Besides, the Tear secretion in the data set with tear secretion (setting [7]) was found to be 149% *; in the data set on tear secretion (setting [8]), 113%; in the data set on tear secretion (setting [9]) it was 123%; with tear secretion (setting [10]), 134%; in the data set with tear secretion (setting [11]), 110%; in the data set on tear secretion (setting [12]) it was 98%. Also, the “Effect on tear secretion compared to vehicle” value in the data set on tear secretion (pilocarpine 24-hour study) was “not significantly different from vehicle”. Also, the “M1 GTPγS PEC50 AVG” value on M1 muscarinic receptor (GTPγS binding) stood at 7.9. In addition, on M1 muscarinic receptor (GTPγS binding, percent efficacy vs carbachol = 100 percent), the “M1 GTPγS EFF % AVG” value was found to be 32%.
`C[C@H](CN1[C@@H]2CC[C@H]1C[C@@H](OCC1CC1)C2)Cn1ncc2ccccc21` [Compound 302S, 1-((R)-3-((1R,3R,5S)-3-(cyclopropylmethoxy)-8-azabicyclo[3.2.1]octan-8-yl)-2-methylpropyl)-1H-indazole]: in data set [1] (R-SAT), the “M3 PEC50 AVG” value is 6.8. Also, the Emax in data set [1] is 12%; in data set [2] (setting [6]), 111%; in data set [3] it was 153%; on M1 muscarinic receptor, 98%. For the same compound, in data set [4] (male, New Zealand White, rabbit, retina (against plasma), topical, 35 μl of 0.126% per eye, most timepoints, iris/ciliary body, cornea, retina, read-out: Plasma concentration lower than concentration in target ocular tissues), the Kp is more than 100. The Tmax in data set [4] (male, New Zealand White, rabbit, topical, 35 μl of 0.126% per eye, all tissues, single 35 μl drop of 0.126% to each eye) was determined as 15 min. Moreover, the Cmax in data set [4] (male, New Zealand White, rabbit, topical, 35 μl of 0.126% per eye, plasma, single 35 μl drop of 0.126% to each eye, read-out: Maximal plasma concentration (Cmax)) was found to be 6.4 ng/g. In addition, in data set [4] (target ocular tissues, single topical drop), the “Time the concentration in the target ocular tissues remained at active levels” value is given as “at least 24 h”. Besides, the “M1 PEC50 AVG” value in data set [2] was found to be 8.9. For the same compound, the “M2 PEC50 AVG” value in data set [3] (R-SAT) came to 7.6. Moreover, the Tear secretion in the data set on tear secretion (setting [7]) is 156% *; with tear secretion (setting [8]), 157% *; with tear secretion (setting [9]), 155% *; with tear secretion (setting [10]), 152% *; in the data set on tear secretion (setting [11]), 151% *; in the data set on tear secretion (setting [12]) it was 120% †. Moreover, the “Tear secretion compared to vehicle” value with tear secretion (setting [13]) was “statistically significant improved tear secretion”; with tear secretion (pilocarpine 24-hour study, 24 hours post-dosing), “trend toward significance”. In addition, the “Enhancement of tear secretion compared to pilocarpine” value with tear secretion (pilocarpine 24-hour study, all time points) was “exceeded the effect of pilocarpine at all time points”. On M1 muscarinic receptor (GTPγS binding), the “M1 GTPγS PEC50 AVG” value is 8.5.
Consider `COCC[C@H]1C[C@H]2CC[C@@H](C1)N2C[C@@H](C)Cn1ncc2ccccc21` [Compound 303S, 1-((R)-3-((1R,3R,5S)-3-(2-Methoxyethyl)-8-azabicyclo[3.2.1]octan-8-yl)-2-methylpropyl)-1H-indazole], for which the Emax in data set [1] was 8%; in data set [2] (setting [6]), 121%; in data set [3], 102%; at M1 muscarinic receptor it was 67%. Further, the “M1 PEC50 AVG” value in data set [2] stood at 8.4. The “M2 PEC50 AVG” value in data set [3] (R-SAT) was found to be 7.1. Also, the “Effects on tear secretion compared to Comparative Compound 2” value with tear secretion is recorded as “greater than that of Comparative Compound 2”. The Tear secretion in the data set on tear secretion (setting [8]) was 131%; in the data set on tear secretion (setting [9]), 134% *. The same compound showed an EC50 at M1 muscarinic receptor of 63.1 nM.
Regarding `C=CCO[C@H]1C[C@H]2CC[C@@H](C1)N2C[C@@H](C)Cn1ncc2ccccc21` [Compound 305, 1-((R)-3-((1R,3R,5S)-3-(Allyloxy)-8-azabicyclo[3.2.1]octan-8-yl)-2-methylpropyl)-1H-indazole], the Emax in data set [1] was 4%; in data set [2] (setting [6]), 115%; in data set [3], 107%; at M1 muscarinic receptor, 70%. Besides, the “M1 PEC50 AVG” value in data set [2] is recorded as 8.1. Besides, the “M2 PEC50 AVG” value in data set [3] (R-SAT) came out at 6.9. This compound displayed a Tear secretion in the data set on tear secretion (setting [7]) of 163% *. Besides, the “Effects on tear secretion compared to Comparative Compound 2” value with tear secretion was “greater than that of Comparative Compound 2”. At M1 muscarinic receptor, this compound had an EC50 of 79.4 nM.
As for `CCOCC[C@H]1C[C@H]2CC[C@@H](C1)N2C[C@@H](C)Cn1ncc2ccc(C)cc21` [Compound 324, 1-((R)-3-((1R,3R,5S)-3-(2-ethoxyethyl)-8-azabicyclo[3.2.1]octan-8-yl)-2-methylpropyl)-6-methyl-1H-indazole], the Emax was found to be 17% in data set [1], 82% in data set [2] (setting [6]), 45% in data set [3] and 31% on M1 muscarinic receptor. For the same compound, in data set [2], the “M1 PEC50 AVG” value was determined as 9.1. Besides, the “M2 PEC50 AVG” value in data set [3] (R-SAT) was determined as 7.9. Besides, on M1 muscarinic receptor, it took 6.31 nM to reach a half-maximal effect (EC50).
Turning to `CC[C@@H]1C(=O)OC[C@@H]1Cc1cncn1C` [Pilocarpine, reference compound], in the data set on tear secretion (setting [13]), the “Tear secretion compared to vehicle” value was “statistically significant improved tear secretion”. Further, the Tear secretion in the data set on tear secretion (setting [10]) amounted to 142% *; in the data set with tear secretion (setting [11]), 136% *; in the data set on tear secretion (setting [12]) it was 113%.
